Results from BindingDB's records for doi:10.1021/jm100886h (University of Copenhagen, 2010).

test: Antagonist activity at GluR1 expressed in Xenopus laevis oocytes assessed as inhibition of glutamate-induced current at -60mV holding potential by two-electrode voltage-clamp electrophysiology

Compound | IC50
NCCCNCCCCNCCCNC(=O)[C@H](CC1CCCCC1)NC(=O)CC12CC3CC(CC(C3)C1)C2 [(S)-2-(2-Adamantan-1-yl-acetylamino)-N-{3-[4-(3-amino-propylamino)-butylamino]-propyl}-3-cyclohexyl-propionamide] | 105 nM
NCCCNCCCCNCCCNC(=O)[C@H](CC1CCCCC1)NC(=O)c1ccc(-c2ccccc2)cc1 [(S)-N-(1-(3-(4-(3-aminopropylamino)butylamino)propylamino)-3-cyclohexyl-1-oxopropan-2-yl)biphenyl-4-carboxamide] | 87 nM
CCCC(=O)N[C@@H](CC1CCCCC1)C(=O)NCCCNCCCCNCCCN [(S)-N-(1-(3-(4-(3-aminopropylamino)butylamino)propylamino)-3-cyclohexyl-1-oxopropan-2-yl)butyramide] | 32 nM
NCCCNCCCCNCCCNC(=O)[C@H](CC1CCCCC1)NC(=O)C1CCCCC1 [(S)-N-(1-(3-(4-(3-aminopropylamino)butylamino)propylamino)-3-cyclohexyl-1-oxopropan-2-yl)cyclohexanecarboxamide] | 21 nM
NCCCNCCCCNCCCNC(=O)[C@H](CC1CCCCC1)NC(=O)Cc1cccc2ccccc12 [(S)-N-(3-(4-(3-aminopropylamino)butylamino)propyl)-3-cyclohexyl-2-(2-(naphthalen-1-yl)acetamido)propanamide] | 41 nM
